Test results reported in patent US20140348819A1, “Methods of Treating Cancer” (Dana-Farber Cancer Institute, Inc., priority 2011, published 2014).

Tests used:
Format in all cases: cell-based, human
pERK/pAKT = test: High-throughput western analysis of pERK/pAKT re-activation by RTK ligands under BRAFi/MEKi
[1] = tested on: six V600E BRAF melanoma cell lines; test: Screening of recombinant RTK ligands for ability to confer resistance to BRAFi (PLX4720) or MEKi (PD184352) (Table 4); parameters: ability of recombinant RTK ligand to confer resistance / ability of recombinant RTK ligand to confer resistance (screening value): scale not given here
Method in brief: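 Six V600E BRAF melanoma lines treated with PLX4720 or PD184352 after addition of 22 recombinant RTK ligands, scored for drug resistance. Activation of selected RTKs confirmed by western blotting and high-throughput tyrosine kinase phosphorylation profiling.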

[2] = tested on: V600E BRAF melanoma cell lines; test: HGF-induced / stromal resistance of melanoma cell lines to BRAF, MEK and AKT inhibitors and its reversal

## HGF: paracrine cellular growth factor, ligand of the RTK c-MET
pERK/pAKT; under BRAFi (PLX4720)
  activation of pAKT by HGF over time: sustained over time
  reactivation of pERK by HGF: substantially reactivate pERK
pERK/pAKT; under BRAFi (PLX4720), after 1 hour of cytokine treatment, six V600E BRAF melanoma cell lines
  re-activation of pERK/pAKT: reactivate both ERK and AKT
pERK/pAKT; under MEKi (PD184352)
  reactivation of pERK by HGF: not under MEKi
pERK/pAKT; under PLX4720, FIG. 10B
  activation of pAKT by RTK ligands: activates AKT in every cell lines tested
pERK/pAKT; under PLX4720 treatment
  duration of ERK/AKT activation: long lasting
[1]; A2058, PD184352 - 1 uM, ligand 0.4 ng/ml
  ability of recombinant RTK ligand to confer resistance: 1.02
[1]; A2058, PD184352 - 1 uM, ligand 1.6 ng/ml
  ability of recombinant RTK ligand to confer resistance: 1.01
[1]; A2058, PD184352 - 1 uM, ligand 6.25 ng/ml
  ability of recombinant RTK ligand to confer resistance: 1.10
[1]; A2058, PD184352 - 1 uM, ligand 25 ng/ml
  ability of recombinant RTK ligand to confer resistance: 1.10
[1]; A2058, PD184352 - 1 uM, ligand 100 ng/ml
  ability of recombinant RTK ligand to confer resistance: 1.66
[1]; A2058, PLX4720 - 2 uM, ligand 0.4 ng/ml
  ability of recombinant RTK ligand to confer resistance: 1.03
[1]; A2058, PLX4720 - 2 uM, ligand 1.6 ng/ml
  ability of recombinant RTK ligand to confer resistance: 1.02
[1]; A2058, PLX4720 - 2 uM, ligand 6.25 ng/ml
  ability of recombinant RTK ligand to confer resistance: 1.12
[1]; A2058, PLX4720 - 2 uM, ligand 25 ng/ml
  ability of recombinant RTK ligand to confer resistance: 1.32
[1]; A2058, PLX4720 - 2 uM, ligand 100 ng/ml
  ability of recombinant RTK ligand to confer resistance: 1.49
[1]; C32, PD184352 - 1 uM, ligand 0.4 ng/ml
  ability of recombinant RTK ligand to confer resistance: 1.10
[1]; C32, PD184352 - 1 uM, ligand 1.6 ng/ml
  ability of recombinant RTK ligand to confer resistance: 1.08
[1]; C32, PD184352 - 1 uM, ligand 6.25 ng/ml
  ability of recombinant RTK ligand to confer resistance: 1.29
[1]; C32, PD184352 - 1 uM, ligand 25 ng/ml
  ability of recombinant RTK ligand to confer resistance: 1.08
[1]; C32, PD184352 - 1 uM, ligand 100 ng/ml
  ability of recombinant RTK ligand to confer resistance: 1.96
[1]; C32, PLX4720 - 2 uM, ligand 0.4 ng/ml
  ability of recombinant RTK ligand to confer resistance: 1.04
[1]; C32, PLX4720 - 2 uM, ligand 1.6 ng/ml
  ability of recombinant RTK ligand to confer resistance: 1.15
[1]; C32, PLX4720 - 2 uM, ligand 6.25 ng/ml
  ability of recombinant RTK ligand to confer resistance: 1.42
[1]; C32, PLX4720 - 2 uM, ligand 25 ng/ml
  ability of recombinant RTK ligand to confer resistance: 1.96
[1]; C32, PLX4720 - 2 uM, ligand 100 ng/ml
  ability of recombinant RTK ligand to confer resistance: 2.01
[1]; Colo 829, PD184352 - 1 uM, ligand 0.4 ng/ml
  ability of recombinant RTK ligand to confer resistance: 0.96
[1]; Colo 829, PD184352 - 1 uM, ligand 1.6 ng/ml
  ability of recombinant RTK ligand to confer resistance: 0.99
[1]; Colo 829, PD184352 - 1 uM, ligand 6.25 ng/ml
  ability of recombinant RTK ligand to confer resistance: 1.12
[1]; Colo 829, PD184352 - 1 uM, ligand 25 ng/ml
  ability of recombinant RTK ligand to confer resistance: 1.41
[1]; Colo 829, PD184352 - 1 uM, ligand 100 ng/ml
  ability of recombinant RTK ligand to confer resistance: 1.89
[1]; Colo 829, PLX4720 - 2 uM, ligand 0.4 ng/ml
  ability of recombinant RTK ligand to confer resistance: 1.00
[1]; Colo 829, PLX4720 - 2 uM, ligand 1.6 ng/ml
  ability of recombinant RTK ligand to confer resistance: 1.02
[1]; Colo 829, PLX4720 - 2 uM, ligand 6.25 ng/ml
  ability of recombinant RTK ligand to confer resistance: 1.14
[1]; Colo 829, PLX4720 - 2 uM, ligand 25 ng/ml
  ability of recombinant RTK ligand to confer resistance: 1.35
[1]; Colo 829, PLX4720 - 2 uM, ligand 100 ng/ml
  ability of recombinant RTK ligand to confer resistance: 1.71
[1]; G-361, PD184352 - 1 uM, ligand 0.4 ng/ml
  ability of recombinant RTK ligand to confer resistance: 1.17
[1]; G-361, PD184352 - 1 uM, ligand 1.6 ng/ml
  ability of recombinant RTK ligand to confer resistance: 1.03
[1]; G-361, PD184352 - 1 uM, ligand 6.25 ng/ml
  ability of recombinant RTK ligand to confer resistance: 1.19
[1]; G-361, PD184352 - 1 uM, ligand 25 ng/ml
  ability of recombinant RTK ligand to confer resistance: 1.68
[1]; G-361, PD184352 - 1 uM, ligand 100 ng/ml
  ability of recombinant RTK ligand to confer resistance: 1.10
[1]; G-361, PLX4720 - 2 uM, ligand 0.4 ng/ml
  ability of recombinant RTK ligand to confer resistance: 0.97
[1]; G-361, PLX4720 - 2 uM, ligand 1.6 ng/ml
  ability of recombinant RTK ligand to confer resistance: 1.03
[1]; G-361, PLX4720 - 2 uM, ligand 6.25 ng/ml
  ability of recombinant RTK ligand to confer resistance: 1.24
[1]; G-361, PLX4720 - 2 uM, ligand 25 ng/ml
  ability of recombinant RTK ligand to confer resistance: 2.27
[1]; G-361, PLX4720 - 2 uM, ligand 100 ng/ml
  ability of recombinant RTK ligand to confer resistance: 9.24
[1]; SK-MEL-5, PD184352 - 1 uM, ligand 0.4 ng/ml
  ability of recombinant RTK ligand to confer resistance: 0.99
[1]; SK-MEL-5, PD184352 - 1 uM, ligand 1.6 ng/ml
  ability of recombinant RTK ligand to confer resistance: 1.17
[1]; SK-MEL-5, PD184352 - 1 uM, ligand 6.25 ng/ml
  ability of recombinant RTK ligand to confer resistance: 1.16
[1]; SK-MEL-5, PD184352 - 1 uM, ligand 25 ng/ml
  ability of recombinant RTK ligand to confer resistance: 1.81
[1]; SK-MEL-5, PD184352 - 1 uM, ligand 100 ng/ml
  ability of recombinant RTK ligand to confer resistance: 2.32
[1]; SK-MEL-5, PLX4720 - 2 uM, ligand 0.4 ng/ml
  ability of recombinant RTK ligand to confer resistance: 0.98
[1]; SK-MEL-5, PLX4720 - 2 uM, ligand 1.6 ng/ml
  ability of recombinant RTK ligand to confer resistance: 1.37
[1]; SK-MEL-5, PLX4720 - 2 uM, ligand 6.25 ng/ml
  ability of recombinant RTK ligand to confer resistance: 1.35
[1]; SK-MEL-5, PLX4720 - 2 uM, ligand 25 ng/ml
  ability of recombinant RTK ligand to confer resistance: 1.95
[1]; SK-MEL-5, PLX4720 - 2 uM, ligand 100 ng/ml
  ability of recombinant RTK ligand to confer resistance: 1.93
[1]; SK-MEL-28, PD184352 - 1 uM, ligand 0.4 ng/ml
  ability of recombinant RTK ligand to confer resistance: 1.11
[1]; SK-MEL-28, PD184352 - 1 uM, ligand 1.6 ng/ml
  ability of recombinant RTK ligand to confer resistance: 1.16
[1]; SK-MEL-28, PD184352 - 1 uM, ligand 6.25 ng/ml
  ability of recombinant RTK ligand to confer resistance: 1.22
[1]; SK-MEL-28, PD184352 - 1 uM, ligand 25 ng/ml
  ability of recombinant RTK ligand to confer resistance: 1.46
[1]; SK-MEL-28, PD184352 - 1 uM, ligand 100 ng/ml
  ability of recombinant RTK ligand to confer resistance: 1.87
[1]; SK-MEL-28, PLX4720 - 2 uM, ligand 0.4 ng/ml
  ability of recombinant RTK ligand to confer resistance: 1.05
[1]; SK-MEL-28, PLX4720 - 2 uM, ligand 1.6 ng/ml
  ability of recombinant RTK ligand to confer resistance: 1.42
[1]; SK-MEL-28, PLX4720 - 2 uM, ligand 6.25 ng/ml
  ability of recombinant RTK ligand to confer resistance: 1.55
[1]; SK-MEL-28, PLX4720 - 2 uM, ligand 25 ng/ml
  ability of recombinant RTK ligand to confer resistance: 3.85
[1]; SK-MEL-28, PLX4720 - 2 uM, ligand 100 ng/ml
  ability of recombinant RTK ligand to confer resistance: 2.20
[1]; six V600E BRAF melanoma cell lines, BRAFi (PLX4720) or MEKi (PD184352)
  ability of RTK ligand to confer primary resistance: confer substantial primary resistance
[2]; FIG. 11C
  HGF-conferred resistance, BRAFi versus MEKi: better resistance to BRAFi than MEKi
[2]; combination of BRAFi and AKTi (MK-2206)
  HGF-conferred resistance: confers resistance
